Measurements from patent publication US20250177412A1, “SMALL-MOLECULE INHIBITORS TARGETING THE BOB1/OCT1 INTERFACE” (NANTES UNIVERSITE, priority 2022, published 2025).

Assays:
memory B cells = assay: In vitro plasmablast differentiation, two-phase human B cell model, flow cytometry; format: cell-based; settings: for expression of CD20 marker (CD20+ B cells): day 7 (FIG. 3O-P); for frequency of CD27+ cells: day 4
Excerpt: FIGS. 3A-Y are a combination of graphs and FACS plots showing that targeting BOB1-OCT(s) complex by compound 005 dose-dependently impairs B cells proliferation, activation and differentiation into plasmablasts in the human B cell differentiation in vitro model. Enriched memory B cells from the blood of healthy subjects (n=15) were stimulated at day 0 with anti-F(ab′)2, CD40L, CpG, and IL-2 for four days (activation phase). On day 4, cells were washed and stimulated with IL-2, IL-4, and IL-10 for additional three days (differentiation phase). Compound 005 was added daily to the cultures to a final concentration of 0 (DMSO), 5, 10, 15, 20 μM, as indicated. […] FIG. 3C-H show corresponding summarized data for the frequency (FIG. 3C, E and G) and relative mean fluorescence intensity (MFI; FIG. 3D, F and H) of CD27^+ (FIG. 3C-D), CD38^+ (FIG. 3E-F), and CD20^+ (FIG. 3G-H) B cells analyzed at Day 4. […] FIG. 3K-P show corresponding summarized data for the frequency (Fig. K, M and O) and relative mean fluorescence intensity (MFI; Fig. L, N and P) of CD27^+ (FIG. 3K-L), CD38^+ (FIG. 3M-N), and CD20^+ (FIG. 3O-P) B cells analyzed at Day 7. […] FIG. 3R-Y show the effect of compound 005 on the levels of IgG1 (FIG. 3R), IgG2 (FIG. 3S), IgG3 (FIG. 3T), IgG4 (FIG. 3U), IgA (FIG. 3V), IgE (FIG. 3W), IgM (FIG. 3X) and IgD (FIG. 3Y) immunoglobulin isotypes production at Day 7. Error bars are mean±SD. P values were determined with one-way ANOVA with Geisser-Greenhouse's multiple comparisons test.
Blood samples were obtained from healthy volunteers provided by Sanquin Blood Supply Foundation (Amsterdam, the Netherlands) or from Etablissement Français du Sang (Nantes, France) after written consent was obtained. Peripheral blood mononuclear cells (PBMCs) were isolated through Ficoll-Paque gradient centrifugation on Lymphoprep (Nycomed). Total B cells were isolated from freshly purified PBMCs by negative selection (B cell Isolation Kit II; Miltenyi Biotech, 130-091-151) on magnetic columns using autoMACS Pro Separator according to the manufacturer's instructions. Subsequently, memory and naïve B cells were isolated from negatively-selected CD19^+ B cells by positive and negative selection with CD27 MicroBeads (Miltenyi Biotech, 130-051-601) using autoMACS Pro Separator according to the manufacturer's instructions. Ultimately, purity of the MACS-isolated CD19^+ B cells, CD19^+CD27^+IgD^− memory B cells and CD19^+CD27^−IgD^+ […] was assessed by flow cytometry; purity was >90% for B cells, >65% for memory B cells, and >85% for naive B cells. All cell cultures were carried out in RPMI 1640 medium (Thermo Fisher Scientific) supplemented with 10% FCS, L-glutamine, and penicillin/streptomycin. Cells were incubated at 37° C. in a 5% CO2 atmosphere.
Cells were resuspended in PBS and labelled with Cell Proliferation Dye eFluor 450 (CPD) (eBioscience) at a final concentration of 10 μM at 37° C. for 10 min, kept on ice for 5 min, and washed twice with 10 mL of ice-cold RPMI 1640 10% FCS medium.
B cells were stimulated to differentiate into plasmablasts using a two-phase cell culture protocol as previously described. Briefly, B cells were seeded at 4×10^5 cells/mL in 24-well plates and activated during 4 days with 50 ng/mL recombinant human soluble CD40L (R&D Systems), 2.5 μg/mL CpG oligodeoxynucleotide (ODN) 2006 (Amidogen or Cayla Invivogen), 2 μg/mL F(ab′)2 fragment goat anti-human IgA+IgG+IgM (H+L) polyclonal Abs (anti-BCR) (Jackson ImmunoResearch Laboratories), and 50 U/mL human IL-2 (SARL Pharmaxie or Novartis). Day 4-activated B cells were washed and cultured at the same concentration for three additional days in a fresh medium containing 50 U/mL human IL-2, 10 ng/mL human IL-4 (R&D Systems), and 10 ng/mL human IL-10 (R&D Systems) to induce B cell differentiation into plasmablasts. […]

[1] = biological target: T1, POU domain of OCT1 (POU1) (Homo sapiens, UniProt P14859); assay: Kd measurement (fluorescence emission spectra, Hill's coordinates); format: binding; settings: 298.15 K
T1 construct: 6xHis (pET28 N-terminal histidine tag) (N); made in house; host or cells: E. coli BL21
T1 sequence (P14859 280-438): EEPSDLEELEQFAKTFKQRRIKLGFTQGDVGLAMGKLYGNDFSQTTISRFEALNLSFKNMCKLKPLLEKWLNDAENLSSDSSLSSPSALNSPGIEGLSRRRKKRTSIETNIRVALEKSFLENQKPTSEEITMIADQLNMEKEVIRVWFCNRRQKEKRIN

Cc1ccc(NC(=O)C2CN(c3nc(NCCCc4ccc(F)cc4)nc(NCCC(=O)O)n3)c3ccccc3O2)cc1Cl (stereo not shown) [compound 005, 3-((4-(2-((3-chloro-4-methylphenyl)carbamoyl)-2,3-dihydro-4H-benzo[b][1,4]oxazin-4-yl)-6-((3-(4-fluorophenyl)propyl)amino)-1,3,5-triazin-2-yl)amino)propanoic acid]
frequency of CD38+ B cells (memory B cells; 5 μM, day 4, mean±SD): 30.5±25.6%
proliferating (CPD low) B cells (memory B cells; 5 μM, day 4, mean±SD): 66.3±4.8%
frequency of CD38+ B cells (memory B cells; 5 μM, day 7): 68.9±10.2%
relative proportion of CD27+ cells (memory B cells; 5 μM, day 7): 54.3±15.9%
frequency of CD38+ B cells (memory B cells; 10 μM, day 4, mean±SD): 23.9±18.3
proliferating (CPD low) B cells (memory B cells; 10 μM, day 4, mean±SD): 46.7±18.3%
CD20loCD38hi plasmablasts generation, median percentage decrease (memory B cells; 10 μM, day 7): 30.3%
frequency of CD38+ B cells (memory B cells; 10 μM, day 7): 55.5±16.1
relative proportion of CD27+ cells (memory B cells; 10 μM, day 7): 53.6±14.2%
expression of CD20 marker (CD20+ B cells) (memory B cells; 10 μM): 81.7±12.4%
frequency of CD27+ cells (memory B cells; 15 μM): 9.5±11.7%
frequency of CD38+ B cells (memory B cells; 15 μM, day 4, mean±SD): 4.3±3.7%
proliferating (CPD low) B cells (memory B cells; 15 μM, day 4, mean±SD): 34.9±19.2%
CD20loCD38hi plasmablasts generation, median percentage decrease (memory B cells; 15 μM, day 7): 70.5%
frequency of CD38+ B cells (memory B cells; 15 μM, day 7): 26.3±13.9%
expression of CD20 marker (CD20+ B cells) (memory B cells; 15 μM): 85.4±11.7%
frequency of CD27+ cells (memory B cells; 20 μM): 6.4±6.4
frequency of CD38+ B cells (memory B cells; 20 μM, day 4, mean±SD): 2.5±2.2
proliferating (CPD low) B cells (memory B cells; 20 μM, day 4, mean±SD): 20.4±19.0%
CD20loCD38hi plasmablasts generation, median percentage decrease (memory B cells; 20 μM, day 7): 85.2%
frequency of CD38+ B cells (memory B cells; 20 μM, day 7): 13.0±12.9
relative proportion of CD27+ cells (memory B cells; 20 μM, day 7): 9.4±8.1%
frequencies of naïve B cells (memory B cells; with the increase in concentration, day 7): significantly increased
Kd ([1]; POU1 3 μM): 1 nM
ΔG (change of Gibb's energy) of binding ([1]; calculated from Kb): negative value
